Values after ≈ are worked out from the molar mass of the structure shown. Where two headings read alike, the source gives them in different places.
Key:
[1] = Metabolic stability in mouse liver microsomes; details: for Metabolic stability in MLM (classification): compared with verapamil; for Clint MLM: 1 μM, phase I
[2] = Chemical stability pH 7.4; type: physicochemical; details: pH = 7.4, 4 h
[3] = target: T1, TrkB receptor (Rattus norvegicus, UniProt Q63604); experiment: ELFI TrkB phosphorylation, orthosteric agonist mode, SN56 T48 cell line; type: cell-based; details: 0.125–100 μM, 15 min
T1 construct: host or cells: SN56 T48 cell line
T1 sequence (Q63604 32-821): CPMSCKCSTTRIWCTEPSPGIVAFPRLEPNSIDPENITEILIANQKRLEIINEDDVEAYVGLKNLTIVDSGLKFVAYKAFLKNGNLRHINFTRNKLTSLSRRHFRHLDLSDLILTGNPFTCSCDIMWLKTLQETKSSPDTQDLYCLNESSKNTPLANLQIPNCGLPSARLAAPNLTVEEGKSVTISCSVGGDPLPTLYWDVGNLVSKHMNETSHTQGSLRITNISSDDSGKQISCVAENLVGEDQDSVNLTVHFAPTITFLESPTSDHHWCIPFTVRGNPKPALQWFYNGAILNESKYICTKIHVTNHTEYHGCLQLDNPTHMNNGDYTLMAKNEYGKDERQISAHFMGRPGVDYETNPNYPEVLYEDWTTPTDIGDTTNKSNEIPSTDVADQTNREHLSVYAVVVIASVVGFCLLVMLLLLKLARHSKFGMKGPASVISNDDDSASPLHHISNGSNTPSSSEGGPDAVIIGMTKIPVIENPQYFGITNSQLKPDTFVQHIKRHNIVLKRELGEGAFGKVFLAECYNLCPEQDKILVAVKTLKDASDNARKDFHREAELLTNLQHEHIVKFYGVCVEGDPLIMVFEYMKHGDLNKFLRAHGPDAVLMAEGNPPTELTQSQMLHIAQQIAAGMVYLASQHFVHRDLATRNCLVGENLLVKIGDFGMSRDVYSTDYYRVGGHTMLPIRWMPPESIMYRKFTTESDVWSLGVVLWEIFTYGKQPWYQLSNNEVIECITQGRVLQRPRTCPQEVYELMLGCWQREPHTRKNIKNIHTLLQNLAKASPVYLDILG
Procedure: The SN56 T48 cell line with stable overexpression of the TrkB receptor was purchased from Emory University (Atlanta, GA, USA) and cultivated according to the protocol described in Jang et al., 2010 [12]. The cell lines were cultivated with the following reagents: DMEM High Glucose, fetal bovine serum (FBS), Penicillin-Streptomycin Solution 100×, and Trypsin-EDTA 1×; all were purchased from Biowest, and G418 was from ThermoFisher Scientific. For the ELFI experiments, cells were seeded (8000/well) on a PDL-treated 96-well plate (BioCoat™, Corning Inc., Corning, NY, USA) and 6-well plate (400,000/well) for lysate collection and immunoblot analysis.
In the orthosteric agonist mode experiments, starved cells (5 h) were treated with compounds (0.125–100 μM; volume, 100 μL/well) or BDNF (0.01–10 nM; volume, 100 μL/well) dissolved in culture medium. In the allosteric modulation mode experiments, starved cells (5 h) were treated with final compound concentrations of 3, 10, and 30 μM; volume, 50 μL/well) in the presence of a rising concentration of BDNF (final concentration in well, 0.15–5 nM; volume, 50 μL/well). Corresponding treatment with DMSO (v/v) was performed for a control. Cells were treated for 15 min in both the orthosteric and allosteric modulation mode experiments.
The analysis of TrkB receptor activation was performed using the ELFI method adapted from Boltayev et al. (2017) with some modifications. After compound treatment, experiments were stopped by fixing cells with 10% buffered formalin (Kolchem, Lodz, Poland) for 20 min (volume, 100 μL/well). Afterwards, cells were permeabilized with washing buffer (TBS+ 0.1% Tween20) for 15 min, and endogenous peroxidases were quenched by 20 min of incubation with 1% H2O2 dissolved in TBS (each solution: volume, 100 μL/well). Epitopes were blocked with 10% BSA (Biowest) dissolved in washing buffer for 2 h (volume, 100 μL/well) and incubated with anti-pTrkB (Tyr707) primary antibody (Cell Signaling Technology, Danvers, MA, USA) diluted in washing buffer (1:500; overnight at 4 °C; volume, 100 μL/well). After repeated washing, cells were incubated with HRP-linked anti-rabbit antibody (Cell Signaling Technology) for 2 h (1:1000; RT; volume, 100 μL/well) and washed. The cells were then incubated with 100 μL of ImmunoCruz™ Western Blotting Luminol (Santa Cruz Biotechnology, Dallas, TX, USA) for 1 min in the dark, and the signals were measured using a microplate luminometer (VICTOR Light 1420-060, PerkinElmer®, Waltham, MA, USA). For non-specific binding, cells were treated, with the exception of primary antibody.

[4] = Kinetic solubility (shake-flask); details: pH 7.4, 4 h, 25 °C
[5] = system: Caco-2 monolayer; experiment: Caco-2 passive permeability; details: 2 h; for Papp,BA: Caco-2, basal to apical; for Papp,AB: Caco-2, apical to basal
[6] = Metabolic stability in human liver microsomes; details: for Clint HLM: 1 μM, phase I; for Metabolic stability in HLM (classification): compared with verapamil
[7] = PAMPA; details: for PAMPA: 10 μM, 4 h
[8] = target: T2, exTrkB (Homo sapiens, UniProt Q16620); experiment: MST binding affinity (Kd) determination
T2 construct: human TrkB receptor (exTrkB), residues 1−430, was cloned into the pCMV2 expression vector; made in house; host or cells: ExpiCHO-S cells
T2 sequence (Q16620 32-430): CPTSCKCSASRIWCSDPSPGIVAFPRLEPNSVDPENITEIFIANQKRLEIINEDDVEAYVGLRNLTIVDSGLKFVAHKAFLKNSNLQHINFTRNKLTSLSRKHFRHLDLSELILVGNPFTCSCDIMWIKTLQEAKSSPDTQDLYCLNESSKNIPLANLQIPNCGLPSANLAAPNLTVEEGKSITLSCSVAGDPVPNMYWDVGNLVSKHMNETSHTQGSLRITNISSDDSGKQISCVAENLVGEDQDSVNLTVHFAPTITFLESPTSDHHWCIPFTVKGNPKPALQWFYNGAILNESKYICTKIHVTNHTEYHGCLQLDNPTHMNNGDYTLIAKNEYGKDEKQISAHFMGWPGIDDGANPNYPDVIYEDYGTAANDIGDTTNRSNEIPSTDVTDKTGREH
Procedure: The gene encoding the extracellular domain of the human TrkB receptor (exTrkB), residues 1−430, was cloned into the pCMV2 expression vector. Protein expression was performed in suspension-cultivated mammalian ExpiCHO-S cells using the ExpiFectamine (Thermo Scientific, Thermo Fisher Scientific, Waltham, MA, USA) transfection reagent. The secreted protein was purified using a four-step protocol. Clarified culture medium was precipitated with ammonium sulfate added to a final concentration of 1.5 M and centrifuged (235,000× g, 60 min at 4 °C). The supernatant after centrifugation was applied on a HiTrap Phenyl column (GE Healthcare, Chicago, IL, USA) equilibrated with buffer A (25 mM Tris, 1 mM DTT; pH 7.5) with 1.5 M ammonium sulfate. Bound proteins were eluted with a linear gradient of buffer A. The eluted proteins were dialyzed overnight in buffer A and loaded on a CaptoQ ImpRes column (GE Healthcare) equilibrated with buffer A with 50 mM NaCl. The bound proteins were eluted with a linear gradient of buffer A with 1 M NaCl. The fractions containing exTrkB protein were pooled, and MnCl2 and CaCl2 (1mM final concentration each) were added. The sample was purified on a HiTrap Con A 4B column (GE Healthcare) equilibrated with buffer B (25 mM Tris, 0.5 M NaCl, 1 mM MnCl2, 1 mM CaCl2; pH 7.5) and eluted with buffer C (25 mM Tris, 0.1 M NaCl, 0.4 M α-D-glucopyranoside; pH 6.5). To improve the protein recovery, buffer C flow was paused nine times during elution. The eluted fractions were concentrated and purified by size-exclusion chromatography on a HiLoad 16/600 Superdex 200 column (GE Healthcare) in buffer A with 0.5 M NaCl. The protein samples were concentrated to 1 mg/mL, and buffer was exchanged (PBS; pH 7.4). Samples were frozen in liquid nitrogen and stored at −80 °C. The protein purity was estimated by SDS–PAGE followed by Coomassie Brilliant Blue staining. The protein concentration was determined from the absorption at 280 nm using an UV NanoDrop 1000 spectrophotometer (Thermo Scientific).
The exTrkB was labeled with a Monolith Protein Labeling Kit RED-NHS 2nd Generation (NanoTemper Technologies GmbH, Munich, Germany) according to the manufacturer’s protocol. The labelling efficiency was always determined spectrophotometrically with NanoPhotometer® NP80 (Impel) in line with the manufacturer’s recommendations. Labelled exTrkB protein was aliquoted and stored at −80 °C to avoid repeated freeze–thaw cycles. Before analysis, the exTrkB protein was thawed on ice and diluted with MST buffer (50 mM Tris pH = 8; 150 mM NaCl; 10 mM MgCl2; 0.1% Tween20) to the desired concentration.
For primary screening (single-point MST experiments for signal amplitude determination), each of the 987 screened compounds were diluted in MST buffer + 0.1% Tween20 to a final concentration of 0.5 mM. The tested compounds were mixed with exTrkB solution (the final concentration of exTrkB was 20 nM) and centrifuged (10,000× g, 4 min at 4 °C) to eliminate protein and compound aggregates. Before loading to capillaries (Monolith NT.115 Capillaries, NanoTemper Technologies GmbH), the samples were incubated for 5 min at 25 °C and then placed into the MST apparatus (Monolith, NanoTemper Technologies GmbH). The experiments were performed using nano-blue excitation, LED light adjusted to 20% excitation power, and MST power set to medium, and the fluorescence signal during thermophoresis was detected after 30 s. Single-point MST experiments were performed by the determination of the amplitude signal between the unbound and bound state between the molecule and exTrkB, which was analyzed using the MO.Control Software version 1.6 (NanoTemper Technologies GmbH). A reference sample containing only exTrkB and the equivalent DMSO concentration (v/v) was included in each individual MST experiment. At least three technical replicates were prepared for each of the tested compounds. A binding affinity study was performed for 113 of the selected compounds at 16 concentration points. […]

[9] = target: extracellular domain of the human TrkB receptor (exTrkB), residues 1-430 (human) (UniProt Q16620)
extracellular domain of the human TrkB receptor (exTrkB), residues 1-430 (human), sequence (Q16620 32-430): as above

[10] = target: extracellular domain of the human TrkB receptor (exTrkB), residues 1-430 (human) (UniProt Q16620); experiment: MST; exTrkB labelled with RED-NHS, 20 nM; ligand titrated at 16 concentration points; MST buffer (50 mM Tris pH 8, 150 mM NaCl, 10 mM MgCl2, 0.1% Tween20); 5 min at 25 °C before loading; Kd binding model
[11] = pH 7.4
[12] = physchem; details: 25 °C, pH 7.4, aqueous buffer, kinetic from dmso stock
[13] = Caco-2 passive permeability; details: human, Caco-2, with 5 μM elacridar and 20 μM cyclosporine A

| Compound | Metabolic stability in MLM (classification) [1] | Chemical Stability [% of Degradation] [2] | Orthosteric activity (induction of TrkB phosphorylation) [3] | Kinetic Solubility [4] [µM] | Papp,BA [5] | Clint HLM [6] [μL·min^−1·mgprotein^−1] | Metabolic stability in HLM (classification) [6] | PAMPA [7] | Binding to the exTrkB receptor [8] | Clint MLM [1] [μL·min^−1·mgprotein^−1] | Papp,AB [5] | EC50 of TrkB phosphorylation (Y706) by enzyme-linked fixed-cell immunoassay (ELFI) in SN56 T48 cells overexpressing TrkB; BDNF 0.01-10 nM, 15 min [9] [nM] | Kd [10] [nM] | Kinetic Solubility [11] [µM] | solubility kinetic at 4 h [12] [µM] | microsomal CLint at 1 μM ([1]; mouse, liver microsomes) [µL/min/mg] | Papp A→B at 2 h [13] [×10⁻⁶ cm/s] | Papp B→A at 2 h [13] [×10⁻⁶ cm/s] | microsomal CLint at 1 μM ([6]; human, liver microsomes) [µL/min/mg] | Papp at 4 h, 10 μM ([7]; PAMPA, pH 7.4) [×10⁻⁶ cm/s] |
| --- | --- | --- | --- | --- | --- | --- | --- | --- | --- | --- | --- | --- | --- | --- | --- | --- | --- | --- | --- | --- |
| CC(=O)NCCc1c[nH]c2ccc(O)cc12 [NAS, N-acetylserotonin] | very good metabolic stability | Stable | did not observe any orthosteric activity | 404 | 8.00 10^−6·cm/s | 0.3 | very good metabolic stability | <0.01 10^−6·cm/s | not observed | 1.5 | 8.86 10^−6·cm/s |  |  |  |  |  |  |  |  |  |
| O=c1cc(-c2cccc(O)c2)oc2c(O)c(O)ccc12 [7,8,3′-THF, 7,8,3′-trihydroxyflavone] | moderate degradation rate | Stable | did not observe any orthosteric activity |  |  |  | moderate degradation rate |  | not observed |  |  |  |  |  | 168 (≈ 45.4 µg/mL) | 26.6 | 3 | 11.1 | 49.4 | 1.1 |

Results, then the compound that gave them:

| Metabolic stability in MLM (classification) [1] | Chemical Stability [% of Degradation] [2] | Orthosteric activity (induction of TrkB phosphorylation) [3] | Kinetic Solubility [4] [µM] | Papp,BA [5] | Clint HLM [6] [μL·min^−1·mgprotein^−1] | Metabolic stability in HLM (classification) [6] | PAMPA [7] | Binding to the exTrkB receptor [8] | Clint MLM [1] [μL·min^−1·mgprotein^−1] | Papp,AB [5] | EC50 of TrkB phosphorylation (Y706) by enzyme-linked fixed-cell immunoassay (ELFI) in SN56 T48 cells overexpressing TrkB; BDNF 0.01-10 nM, 15 min [9] [nM] | Kd [10] [nM] | Kinetic Solubility [11] [µM] | solubility kinetic at 4 h [12] [µM] | microsomal CLint at 1 μM ([1]; mouse, liver microsomes) [µL/min/mg] | Papp A→B at 2 h [13] [×10⁻⁶ cm/s] | Papp B→A at 2 h [13] [×10⁻⁶ cm/s] | microsomal CLint at 1 μM ([6]; human, liver microsomes) [µL/min/mg] | Papp at 4 h, 10 μM ([7]; PAMPA, pH 7.4) [×10⁻⁶ cm/s] | Compound |
| --- | --- | --- | --- | --- | --- | --- | --- | --- | --- | --- | --- | --- | --- | --- | --- | --- | --- | --- | --- | --- |
| very good metabolic stability | Stable | did not observe any orthosteric activity | 397 | 0.12 10^−6·cm/s | 3.7 | very good metabolic stability | 0.01 10^−6·cm/s | not observed |  |  |  |  |  |  |  |  |  |  |  | O=C(NCCO)c1cc(C(=O)NCCO)cc(C(=O)NCCO)c1 [LM22-A4] |
|  |  |  |  |  |  |  |  |  |  |  | 4 | 93 |  |  |  |  |  |  |  | Brain-derived neurotrophic factor (ligand) |
| very good metabolic stability | Stable | did not observe any orthosteric activity |  | 2.29 10^−6·cm/s |  | very good metabolic stability | 1.24 10^−6·cm/s | not observed | 2.1 | 1.11 10^−6·cm/s |  |  | 437 |  |  |  |  |  |  | O=C1NCCCC1C(=O)NCCc1c[nH]c2ccc(O)cc12 (stereo not shown) [HIOC] |
